For 25 compounds, Ki, Kd and melting point results are on record in patent US20120071506A1, “METHODS FOR TREATING CNS DISORDERS WITH BICYCLO-SUBSTITUTED 2-IMIDAZOLINE AND 2-IMIDAZOLES” (priority 2006, published 2012).

Structures can show the parent of a compound that is named as a salt.

T1 sequence (Q923Y8 whole entry): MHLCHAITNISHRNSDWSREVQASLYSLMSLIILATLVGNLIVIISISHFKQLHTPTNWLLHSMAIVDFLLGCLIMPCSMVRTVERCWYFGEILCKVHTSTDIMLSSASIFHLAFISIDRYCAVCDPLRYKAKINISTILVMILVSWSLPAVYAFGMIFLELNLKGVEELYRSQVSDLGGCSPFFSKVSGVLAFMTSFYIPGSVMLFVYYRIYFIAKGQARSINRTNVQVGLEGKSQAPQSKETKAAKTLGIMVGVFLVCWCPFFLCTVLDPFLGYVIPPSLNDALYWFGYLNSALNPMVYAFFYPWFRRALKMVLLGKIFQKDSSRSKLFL

The first data set addresses T1, mouse TAAR1 (Mus musculus, UniProt Q923Y8).
T1 construct: expressed in transfected cells; host or cells: HEK293 cells (ATCC # CRL-1573), stably transfected with pIRESneo2 expression plasmid; membrane preparation
Description: Radioligand binding with [3H]-rac-2-(1,2,3,4-tetrahydro-1-naphthyl)-2-imidazoline on membranes of HEK293 cells stably expressing TAAR1. Particulars: mouse TAAR1; competition with [3H]-rac-2-(1,2,3,4-tetrahydro-1-naphthyl)-2-imidazoline at 60 nM, 4° C., 30 min. The protocol:
For the construction of expression plasmids the coding sequences of human, rat and mouse TAAR 1 were amplified from genomic DNA essentially as described by Lindemann et al.. The Expand High Fidelity PCR System (Roche Diagnostics) was used with 1.5 mM Mg^2+ and purified PCR products were cloned into pCR2.1-TOPO cloning vector (Invitrogen) following the instructions of the manufacturer. PCR products were subcloned into the pIRESneo2 vector (BD Clontech, Palo Alto, Calif.), and expression vectors were sequence verified before introduction in cell lines.
HEK293 cells (ATCC # CRL-1573) were cultured essentially as described Lindemann et al. (2005). For the generation of stably transfected cell lines HEK293 cells were transfected with the pIRESneo2 expression plasmids containing the TAAR coding sequences (described above) with Lipofectamine 2000 (Invitrogen) according to the instructions of the manufacturer, and 24 hrs post transfection the culture medium was supplemented with 1 mg/ml G418 (Sigma, Buchs, Switzerland). After a culture period of about 10 d clones were isolated, expanded and tested for responsiveness to trace amines (all compounds purchased from Sigma) with the cAMP Biotrak Enzyme immunoassay (EIA) System (Amersham) following the non-acetylation EIA procedure provided by the manufacturer.
Cells at confluence were rinsed with ice-cold phosphate buffered saline without Ca^2+ and Mg^2+ containing 10 mM EDTA and pelleted by centrifugation at 1000 rpm for 5 min at 4° C. The pellet was then washed twice with ice-cold phosphate buffered saline and cell pellet was frozen immediately by immersion in liquid nitrogen and stored until use at −80° C. Cell pellet was then suspended in 20 ml HEPES-NaOH (20 mM), pH 7.4 containing 10 mM EDTA, and homogenized with a Polytron (PT 3000, Kinematica) at 10,000 rpm for 10 s. The homogenate was centrifuged at 48,000×g for 30 min at 4° C. and the pellet resuspended in 20 ml HEPES-NaOH (20 mM), pH 7.4 containing 0.1 mM EDTA (buffer A), and homogenized with a Polytron at 10,000 rpm for 10 s. The homogenate was then centrifuged at 48,000×g for 30 min at 4° C. and the pellet resuspended in 20 ml buffer A, and homogenized with a Polytron at 10,000 rpm for 10 s. Protein concentration was determined by the method of Pierce (Rockford, Ill.). The homogenate was then centrifuged at 48,000×g for 10 min at 4° C., resuspended in HEPES-NaOH (20 mM), pH 7.0 including MgCl2 (10 mM) and […] homogenized with a Polytron at 10,000 rpm for 10 s.
Binding assay was performed at 4° C. in a final volume of 1 ml, and with an incubation time of 30 min. The radioligand [^3H]-rac-2-(1,2,3,4-tetrahydro-1-naphthyl)-2-imidazoline was used at a concentration equal to the calculated Kd value of 60 nM to give a bound at around 0.1% of the total added radioligand concentration, and a specific binding which represented approximately 70-80% of the total binding. Non-specific binding was defined as the amount of [^3H]-rac-2-(1,2,3,4-tetrahydro-1-naphthyl)-2-imidazoline bound in the presence of the appropriate unlabelled ligand (10 μM). Competing ligands were tested in a wide range of concentrations (10 pM-30 μM). […] Each experiment was performed in duplicate. All incubations were terminated by rapid filtration through UniFilter-96 plates (Packard Instrument Company) and glass filter GF/C, pre-soaked for at least 2 h in polyethylenimine 0.3%, and using a Filtermate 96 Cell Harvester (Packard Instrument Company). The tubes and filters were then washed 3 times with 1 ml aliquots of cold buffer B. Filters were not dried and soaked in Ultima gold (45 μl/well, Packard Instrument Company) and bound radioactivity was counted by a TopCount Microplate Scintillation Counter (Packard Instrument Company).
`Clc1cc(Cl)c2c(c1)C(c1ncc[nH]1)CCO2` (racemic) [Example 36, rac-2-(6,8-Dichloro-chroman-4-yl)-1H-imidazole] yielded a Ki of 0.053 µM.
In the case of `COc1ccc2c(c1)C(C1=NCCN1)CCC2` (racemic) [Example 20, rac-2-(7-Methoxy-1,2,3,4-tetrahydro-naphthalen-1-yl)-4,5-dihydro-1H-imidazole], the inhibition constant Ki stood at 0.051 µM.
On to `Fc1cccc2c1C(c1cnc[nH]1)CCO2` (racemic) [Example 67, rac-5-(5-Fluoro-chroman-4-yl)-1H-imidazole or tautomer], for which the Ki came out at 0.032 µM.
As for `c1ccc2c(c1)CCCC2c1c[nH]cn1` (racemic) [Example 56, rac-4-(1,2,3,4-Tetrahydro-naphthalen-1-yl)-1H-imidazole], the affinity, expressed as Ki, was 0.006 µM.
Compound `C1=C(c2cnc[nH]2)c2ccccc2CC1` [Example 55] gave an inhibitory constant (Ki) of 0.011 µM.
Compound `Fc1ccc2c(c1)OCCC2c1cnc[nH]1` (racemic) [Example 65, rac-5-(7-Fluoro-chroman-4-yl)-1H-imidazole or tautomer] had a Ki of 0.004 µM.
On to `Cc1cccc2c1C(c1cnc[nH]1)CCO2` (racemic) [Example 66, rac-5-(5-Methyl-chroman-4-yl)-1H-imidazole or tautomer], for which the affinity, expressed as Ki, was 0.037 µM.
In turn, `Brc1cccc2c1CCCC2C1=NCCN1` (racemic) [Example 1, rac-2-(5-Bromo-1,2,3,4-tetrahydro-naphthalen-1-yl)-4,5-dihydro-1H-imidazole] displayed a Ki of 0.009 µM.
On the same count and under the same terms, the value for `c1ccc2c(c1)OCCC2C1=NCCN1` (racemic) [Example 11, rac-2-Chroman-4-yl-4,5-dihydro-1H-imidazole] was 0.017 µM.
For the compound `c1ccc2c(c1)OCCC2c1ncc[nH]1` (racemic) [Example 12, rac-2-Chroman-4-yl-1H-imidazole], the Ki was determined as 0.054 µM.
Regarding `Fc1cc(Cl)cc2c1CCCC2C1=NCCN1` (racemic) [Example 3, rac-2-(7-Chloro-5-fluoro-1,2,3,4-tetrahydro-naphthalen-1-yl)-4,5-dihydro-1H-imidazole], the Ki turned out to be 0.054 µM.
In the case of `Fc1ccc2c(c1)C(c1cnc[nH]1)CCO2` (racemic) [Example 62, rac-5-(6-Fluoro-chroman-4-yl)-1H-imidazole or tautomer], the affinity, expressed as Ki, was 0.004 µM.
The compound `Cc1ccc2c(c1)OCCC2c1cnc[nH]1` (racemic) [Example 60, rac-5-(7-Methyl-chroman-4-yl)-1H-imidazole or tautomer] had a Ki of 0.008 µM.
`COc1ccc2c(c1)CCCC2C1=NCCN1` (racemic) [Example 21, rac-2-(6-methoxy-1,2,3,4-tetrahydro-naphthalen-1-yl)-4,5-dihydro-1H-imidazole] registered an inhibitory constant (Ki) of 0.009 µM.
`Clc1cccc2c1OCC=C2c1cnc[nH]1` [Example 63, 5-(8-Chloro-2H-chromen-4-yl)-1H-imidazole or tautomer]: the affinity corresponds to a Ki of 0.02 µM.
The same measure, in the same setting: the value for `Clc1ccc2c(c1)CCCC2C1=NCCN1` (racemic) [Example 18, rac-2-(6-chloro-1,2,3,4-tetrahydro-naphthalen-1-yl)-4,5-dihydro-1H-imidazole] was 0.058 µM.
Compound `Clc1cccc2c1CCCC2C1=NCCN1` (racemic) [Example 19, rac-2-(5-chloro-1,2,3,4-tetrahydro-naphthalen-1-yl)-4,5-dihydro-1H-imidazole] registered a Ki of 0.013 µM.
Consider `c1ccc2c(c1)NCCC2c1ncc[nH]1` (racemic) [Example 41, rac-4-(1H-Imidazol-2-yl)-1,2,3,4-tetrahydro-quinoline], for which the affinity, expressed as Ki, was 0.061 µM.
The compound `Cc1cc(C)c2c(c1)C(C1=NCCN1)CCC2` (racemic) [Example 2, rac-2-(5,7-Dimethyl-1,2,3,4-tetrahydro-naphthalen-1-yl)-4,5-dihydro-1H-imidazole] had an inhibitory constant (Ki) of 0.011 µM.
Consider `Cc1cc(C)c2c(c1)C(c1ncc[nH]1)CCC2` (racemic) [Example 10, rac-2-(5,7-Dimethyl-1,2,3,4-tetrahydro-naphthalen-1-yl)-1H-imidazole], for which the inhibition constant Ki came out at 0.013 µM.
Compound `c1ccc2c(c1)OCCC2c1cnc[nH]1` (racemic) [Example 69, rac-5-Chroman-4-yl-1H-imidazole hydrochloride or tautomer] registered a Ki of 0.025 µM.
For the compound `Clc1ccc2c(c1)C(c1cnc[nH]1)=CCO2` [Example 64, 5-(6-Chloro-2H-chromen-4-yl)-1H-imidazole or tautomer], the inhibition constant (Ki) came to 0.016 µM.
Same read-out and setting: next, `COc1cccc2c1CCCC2C1=NCCN1` (racemic) [Example 22, rac-2-(5-methoxy-1,2,3,4-tetrahydro-naphthalen-1-yl)-4,5-dihydro-1H-imidazole]: 0.025 µM.

The data set is the same for the next values; noted with them: radioligand used at a concentration equal to its calculated Kd; species of TAAR1 not given.
On to `c1ccc2c(c1)CCCC2C1=NCCN1` (racemic) [[^3H]-rac-2-(1,2,3,4-tetrahydro-1-naphthyl)-2-imidazoline, reference compound], for which the Kd was 60 nM.

Tested on in another data set: not given
Assay: not given
Details: not given
In turn, `Cc1cc(C)c2c(c1)C(c1ncc[nH]1)CCC2` (racemic) [Example 10, rac-2-(5,7-Dimethyl-1,2,3,4-tetrahydro-naphthalen-1-yl)-1H-imidazole] had a melting point of 161 to 163 °C.
`Brc1ccc2c(c1)C(C1=NCCN1)CCC2` (racemic) registered a melting point of 156 to 158 °C.
